According to US7045339B2, “Electron donors for chlorinated solvent source area bioremediation” (SRP Technologies, Inc., priority 2002, dated 2006):

Key:
Format in all cases: physicochemical
[1] = Interfacial tension between electron donor solutions and nonaqueous phase TCE (pendant drop method)
Text: (§1) Based on the field results presented in Example 1, laboratory studies were preformed to confirm that the enhanced bioavailability of TCE observed in the field was due to co-solvent or surfactant behavior resulting from the use of high concentrations of sodium lactate. Two fundamental properties used to screen the co-solvent or surfactant properties of a solution are surface tension and interfacial tension. Surface tension measures the force per unit length along the interface between a liquid and air due to its tension. When a co-solvent or surfactant is present in an aqueous liquid at increasing concentrations, the surface tension of that liquid decreases. Interfacial tension is similar to surface tension except that it measures the force per unit length along the interface between two liquid phases arising from the surface free energy. The higher the interfacial tension between two liquids, the less likely one is to dissolve into the other, and the more difficult it is for one to be transported within the other. Thus, perhaps the most significant property of co-solvents and surfactants in the context of chlorinated solvent remediation is that they decrease the interfacial tension between the aqueous phase (groundwater) and the organic nonaqueous phase so that the solubility (or mobility for order-of-magnitude decreases) of the nonaqueous phase is enhanced.
The laboratory study performed to confirm the co-solvent properties of the high concentration electron donor solution measured the surface tension of electron donor solutions at various concentrations. Next, interfacial tensions between the same electron donor solutions and nonaqueous phase TCE were measured. Two types of electron donor solutions were used. The first was different concentrations of sodium lactate, the electron donor used in Example 1. The second was various mixtures of sodium lactate and ethyl lactate. Ethyl lactate was chosen because it is a lactate-based compound that is used in some industries as a solvent. Thus it was believed ethyl lactate might further enhance the co-solvent behavior observed, while still acting as a suitable electron donor for bioremediation. It is believed that mixtures of sodium lactate and ethyl lactate have never before been used for bioremediation. Surface and interfacial tension measurements were made using the pendant drop method (M. J. Rosen, ed., Structure/Performance Relationships in Surfactants, American Chemical Society, Washington D.C. 329 (1984); R. D. Bagnall & P. A. Arundel, The Profile Area of Pendant Drops, 82 J. Phys. Chem. 898 (1978)) coupled with real-time video imaging (M. D. Herd et al., Interfacial Tensions of Microbial Surfactants Determined by Real-Time Video Imaging of Pendant Drops, Proceedings paper number SPE/DOE 24206 513–519, SPE/DOE Eighth Symposium on Enhanced Oil Recovery, Tulsa, Okla. (1992)).
The data points in the figure represent the mean interfacial tension measurement based on at least eight independent measurements. The error bars show one standard deviation. It can be seen that as electron donor concentration increases, interfacial tension generally decreases. While sodium lactate had dramatic effects in the field (see FIG. 7), it appears that the other electron donor solutions tested might increase bioavailability to an even greater extent. […]

[2] = Surface tension of electron donor solutions (pendant drop method); conditions: FIG. 5; for Change in surface tension: 0% ethyl lactate
Text: as §1, with “Thus, perhaps the most significant property of co-solvents and surfactants in the context of chlorinated solvent remediation is that they decrease the interfacial tension between the aqueous phase (groundwater) and the organic nonaqueous phase so that the solubility (or mobility for order-of-magnitude decreases) of the nonaqueous phase is enhanced.” left out
The laboratory study performed to confirm the co-solvent properties of the high concentration electron donor solution measured the surface tension of electron donor solutions at various concentrations. Next, interfacial tensions between the same electron donor solutions and nonaqueous phase TCE were measured. […] Surface and interfacial tension measurements were made using the pendant drop method (M. J. Rosen, ed., Structure/Performance Relationships in Surfactants, American Chemical Society, Washington D.C. 329 (1984); R. D. Bagnall & P. A. Arundel, The Profile Area of Pendant Drops, 82 J. Phys. Chem. 898 (1978)) coupled with real-time video imaging (M. D. Herd et al., Interfacial Tensions of Microbial Surfactants Determined by Real-Time Video Imaging of Pendant Drops, Proceedings paper number SPE/DOE 24206 513–519, SPE/DOE Eighth Symposium on Enhanced Oil Recovery, Tulsa, Okla. (1992)).

[3] = Emulsion formation of electron donor in water; conditions: very little mixing, unpublished data
Text: Oleyl lactyllic acid may be just such an electron donor (confidential proprietary information). It is essentially a combination of vegetable oil and lactic acid that was developed in the food processing industry a few decades ago as an emulsifier. […] Although it has an appearance and viscosity of vegetable oil, its nature as an emulsifier causes it to react very differently with water than pure vegetable oil. When vegetable oil is used in the field as electron donor, an emulsifier such as lecithin must be added to inject it into groundwater (25). The mixture is then mixed to achieve an emulsion of a few tenths of a percent to a few percent oil. The droplet size of the emulsion may be a critical factor in its transportability (26). In order to achieve small, easily transported droplets in the emulsion, intensive mixing is required. […] This observation is consistent with its intended use in food processing. […] While this may be the most promising example on the surface, other potential electron donors will be evaluated under this proposal.

CCOC(=O)C(C)O (stereo not drawn) [ethyl lactate]
Tension compared with 30% sodium lactate solution with no ethyl lactate ([1]; 10% ethyl lactate mixture with sodium lactate): lower surface tensions than the 30% sodium lactate solution | Dependence of interfacial tension on sodium lactate concentration ([1]; ethyl lactate / sodium lactate mixtures, FIG. 6): relatively insensitive to sodium lactate concentration | Effect on the solution's surface tension ([2]; 1% and 10% ethyl lactate added to sodium lactate solutions): pronounced effect

CC(O)C(=O)[O-].[Na+] (stereo not drawn) [sodium lactate]
Decrease of interfacial tension between nonaqueous TCE and the electron donor solution ([1]; high concentrations of sodium lactate): ≤ 47% | Interfacial tension as percent of the value at 0.1% sodium lactate ([1]; sodium lactate 30%, 0% ethyl lactate, FIG. 6): 47% | Decrease of interfacial tension ([1]; sodium lactate increased from 0.1 to 3%, 0% ethyl lactate, FIG. 6): about 26% | Change in surface tension ([2]; sodium lactate 0.01 to 7%): almost no change | Change in surface tension ([2]; sodium lactate 30 and 60%): dramatic decrease

oleyl lactyllic acid
Emulsion formed in water [3]: forms a stable microemulsion
